The source of these data is PubChem BioAssay AID286 (DTP/NCI, 2004).

In this assay the test system is BDF1 mice, M5076 sarcoma ip, median survival T/C. Briefly: NCI In Vivo Anticancer Drug Screen. Data for tumor model Sarcoma M5076 (intraperitoneal) in B6D2F1 (BDF1) mice. The note with it: endpoint: median survival time, higher = longer survival. The procedure: The antitumor activity of compounds was measured in mice bearing transplantable tumors. Survival or tumor size were measured and the results are expressed as the measurement made in the treated group (T) divided by the measurement made in the vehicle treated control group (C). The tumor model used in this assay is Sarcoma M5076 (intraperitoneal) in B6D2F1 (BDF1) mice

Where [1] appears, read: dose: 100.0 mg/kg/injection, schedule: Q04DX004 (ip), vehicle: Klucel (hydroxypropylcellulose) (HPC).
Where [2] appears, read: dose: 25.0 mg/kg/injection, schedule: Q04DX004 (ip), vehicle: saline with Tween-80.
Where [3] appears, read: dose: 3.12 mg/kg/injection, schedule: Q01DX009 (ip), vehicle: saline.

Several values for one entry are separate records, joined by “and”; a condition that tells them apart may be missing. Equal values may be shown once. Toxic doses and inconclusive results are not listed. Starred links: 1 amine or outer side, 2 acyl side, 3 side chain; linkers in the order of their positions; H or OH if unused. Positions of bridges follow the written chain, without caps; N, C: chain ends. Non-standard residues stand in square brackets, D forms with d. Residues, ends and D or L forms follow the SMILES beside them. Chains are numbered I, II in the order given. ξ: configuration not given here. *: point of attachment. Actinocin(9to1) = Cc1c2oc3c(C)ccc(C(=O)[*:1])c3nc-2c(C(=O)[*:2])c(N)c1=O; Quinaldoyl(3-OH,6-OMe) = COc1ccc2nc(C(=O)*)c(O)cc2c1; X1 = CCC(=O)OC1CC=NN([*:1])C1C(=O)[*:2]; X2 = CC(=O)OC1CC=NN([*:1])C1C(=O)[*:2]; ξNMeVal(3-OH) = CNC(C(=O)O)C(C)(C)O; aThr = C[C@H](O)[C@H](N)C(=O)O; NMeV = CN[C@H](C(=O)O)C(C)C; Sar = CNCC(=O)O

For the molecule `Nc1nc(=S)c2[nH]cnc2[nH]1`, the T/C (dose: 0.75 mg/kg/injection, schedule: Q04DX005 (ip), vehicle: alkali diluted with saline) is 101 % of control; the T/C (dose: 2.0 mg/kg/injection, schedule: Q04DX005 (ip), vehicle: alkali diluted with saline) was 92 % of control; the T/C (dose: 6.0 mg/kg/injection, schedule: Q04DX005 (ip), vehicle: alkali diluted with saline) is 157 % of control.
As to `O=C(NC(Cc1ccc(I)cc1)C(=O)O)c1cccc(Br)c1` (stereo not drawn), the T/C was 116 % of control under setting [1]; 114 % of control (dose: 200.0 mg/kg/injection, schedule: Q04DX004 (ip), vehicle: Klucel (hydroxypropylcellulose) (HPC)); 99 % of control (dose: 400.0 mg/kg/injection, schedule: Q04DX004 (ip), vehicle: Klucel (hydroxypropylcellulose) (HPC)).
With `Cc1ccc2c(c1)n([O-])c1cc(Cl)ccc1[n+]2=O`, the T/C under setting [2] was 109 % of control; the T/C (dose: 50.0 mg/kg/injection, schedule: Q04DX004 (ip), vehicle: saline with Tween-80) is 112 % of control; the T/C (dose: 100.0 mg/kg/injection, schedule: Q04DX004 (ip), vehicle: saline with Tween-80) is 110 % of control; the T/C (dose: 200.0 mg/kg/injection, schedule: Q04DX004 (ip), vehicle: saline with Tween-80) is 110 % of control; the T/C (dose: 400.0 mg/kg/injection, schedule: Q04DX004 (ip), vehicle: saline with Tween-80) is 115 % of control.
For `CC(=O)N(C)c1ccc(Nc2cc(C)[nH]c3ccc4ncnc4c23)cc1`, under “dose: 5.0 mg/kg/injection, schedule: Q04DX004 (ip), vehicle: saline”, the T/C is 96 % of control.
`C/C(=N\NC(=S)N1CC2CCC(CC2)C1)c1nccs1`: the T/C reads like this: (dose: 12.5 mg/kg/injection, schedule: Q04DX004 (ip), vehicle: saline with Tween-80) 107 % of control; under setting [2], 106 % of control.
With `CCC(=O)OC1CC=NN2C(=O)C(NC(=O)c3nc4ccc(OC)cc4cc3O)COC(=O)C(C(C)(C)O)N(C)C(=O)CN(C)C(=O)CNC(=O)C3C(OC(C)=O)CC=NN3C(=O)C(NC(=O)c3nc4ccc(OC)cc4cc3O)COC(=O)C(C(C)(C)O)N(C)C(=O)CN(C)C(=O)CNC(=O)C12` (stereo not drawn) (I: {Quinaldoyl(3-OH,6-OMe)}-S[X1]G[Sar][ξNMeVal(3-OH)] / II: {Quinaldoyl(3-OH,6-OMe)}-S[X2]G[Sar][ξNMeVal(3-OH)]; ester I:1-II:C, I:C-II:1; configuration not given here), the T/C is, setting by setting: (dose: 18.75 micrograms/kg/injection, schedule: Q01DX009 (ip), vehicle: DMSO) 117 % of control; (dose: 37.5 micrograms/kg/injection, schedule: Q01DX009 (ip), vehicle: DMSO) 165 % of control and 169 % of control; (dose: 75.0 micrograms/kg/injection, schedule: Q01DX009 (ip), vehicle: DMSO) 191 % of control and 160 % of control; (dose: 150.0 micrograms/kg/injection, schedule: Q01DX009 (ip), vehicle: DMSO) 165 % of control.
In the case of `Oc1cc(O)c(-c2c(O)cc(O)cc2O)c(O)c1` (tested in a mixture with another compound), the T/C runs as follows: (dose: 1.56 mg/kg/injection, schedule: Q01DX009 (ip), vehicle: saline) 118 % of control; under setting [3], 122 % of control; (dose: 3.75 mg/kg/injection, schedule: Q01DX009 (ip), vehicle: saline) 119 % of control; (dose: 6.25 mg/kg/injection, schedule: Q01DX009 (ip), vehicle: saline) 118 % of control; (dose: 12.5 mg/kg/injection, schedule: Q01DX009 (ip), vehicle: saline) 123 % of control; (dose: 15.0 mg/kg/injection, schedule: Q01DX009 (ip), vehicle: saline) 123 % of control.
For `Cc1c2oc3c(C)ccc(C(=O)N[C@@H]4C(=O)N[C@H](C(C)C)C(=O)N5CCC[C@H]5C(=O)N(C)CC(=O)N(C)[C@@H](C(C)C)C(=O)O[C@H]4C)c3nc-2c(C(=O)N[C@@H]2C(=O)N[C@H](C(C)C)C(=O)N3CCC[C@H]3C(=O)N(C)CC(=O)N(C)[C@@H](C(C)C)C(=O)O[C@H]2C)c(N)c1=O` (I: [aThr][dV]P[Sar][NMeV] / II: [aThr][dV]P[Sar][NMeV]; ester I:1-I:C, II:1-II:C; linker I:N-II:N via Actinocin(9to1)), the T/C is, setting by setting: (dose: 0.1 mg/kg/injection, schedule: Q04DX004 (ip), vehicle: saline + alcohol) 165 % of control; (dose: 0.2 mg/kg/injection, schedule: Q04DX004 (ip), vehicle: saline + alcohol) 178 % of control.
Consider `CC(=O)OCC1OC(n2ncc(=O)[nH]c2=O)C(OC(C)=O)C1OC(C)=O` (stereo not drawn), for which the T/C reads like this: (dose: 150.0 mg/kg/injection, schedule: Q04DX004 (ip), vehicle: Klucel (hydroxypropylcellulose) (HPC)) 102 % of control; (dose: 300.0 mg/kg/injection, schedule: Q04DX004 (ip), vehicle: Klucel (hydroxypropylcellulose) (HPC)) 102 % of control; (dose: 600.0 mg/kg/injection, schedule: Q04DX004 (ip), vehicle: Klucel (hydroxypropylcellulose) (HPC)) 102 % of control; (dose: 1200.0 mg/kg/injection, schedule: Q04DX004 (ip), vehicle: Klucel (hydroxypropylcellulose) (HPC)) 87 % of control.
On to `C=C1C(=O)OC2C1C(OC(=O)/C(C)=C\C)CC(C)=C1C(=O)C3OC3(C)C12O` (stereo not drawn), for which the T/C runs as follows: (dose: 1.25 mg/kg/injection, schedule: Q01DX009 (ip), vehicle: saline + alcohol) 97 % of control; (dose: 2.5 mg/kg/injection, schedule: Q01DX009 (ip), vehicle: saline + alcohol) 105 % of control; (dose: 5.0 mg/kg/injection, schedule: Q01DX009 (ip), vehicle: saline + alcohol) 105 % of control and 121 % of control; (dose: 20.0 mg/kg/injection, schedule: Q01DX009 (ip), vehicle: saline + alcohol) 117 % of control.
With `N#CC(C#N)=NNc1ccc2cn[nH]c2c1`, the T/C reads like this: (dose: 12.5 mg/kg/injection, schedule: Q04DX004 (ip), vehicle: Klucel (hydroxypropylcellulose) (HPC)) 105 % of control; (dose: 25.0 mg/kg/injection, schedule: Q04DX004 (ip), vehicle: Klucel (hydroxypropylcellulose) (HPC)) 95 % of control; (dose: 50.0 mg/kg/injection, schedule: Q04DX004 (ip), vehicle: Klucel (hydroxypropylcellulose) (HPC)) 90 % of control; under setting [1], 103 % of control.
With `O=C1C2C3C=CC(C2C(=O)N1CO)C1C2C(=O)N(CO)C(=O)C2C31` (stereo not drawn), the T/C was 106 % of control (dose: 12.5 mg/kg/injection, schedule: Q04DX004 (ip), vehicle: water); 105 % of control (dose: 25.0 mg/kg/injection, schedule: Q04DX004 (ip), vehicle: water); 106 % of control (dose: 50.0 mg/kg/injection, schedule: Q04DX004 (ip), vehicle: water).
`CC1(C)N=C(N)N=C(N)N1c1ccc(CCCCc2ccc(S(=O)(=O)F)cc2Cl)c(Cl)c1`: the T/C is 220 % of control (dose: 5.0 mg/kg/injection, schedule: Q01DX009 (ip), vehicle: Klucel (hydroxypropylcellulose) (HPC)); 251 % of control (dose: 10.0 mg/kg/injection, schedule: Q01DX009 (ip), vehicle: Klucel (hydroxypropylcellulose) (HPC)); 303 % of control (dose: 20.0 mg/kg/injection, schedule: Q01DX009 (ip), vehicle: Klucel (hydroxypropylcellulose) (HPC)); 388 % of control (dose: 40.0 mg/kg/injection, schedule: Q01DX009 (ip), vehicle: Klucel (hydroxypropylcellulose) (HPC)); 224 % of control (dose: 40.0 mg/kg/injection, schedule: Q01DX009 (ip), vehicle: saline with Tween-80); 224 % of control (dose: 60.0 mg/kg/injection, schedule: Q01DX009 (ip), vehicle: saline with Tween-80).
In the case of `NC1=NC(O)C=C1` (stereo not drawn), the T/C is 118 % of control under setting [3]; 152 % of control (dose: 20.0 mg/kg/injection, schedule: Q01DX009 (ip), vehicle: saline); 160 % of control (dose: 25.0 mg/kg/injection, schedule: Q01DX009 (ip), vehicle: saline); 152 % of control (dose: 40.0 mg/kg/injection, schedule: Q01DX009 (ip), vehicle: saline); 178 % of control (dose: 50.0 mg/kg/injection, schedule: Q01DX009 (ip), vehicle: saline).
For the molecule `COC1CC2C=C(C)/C=C/C=C/C(=O)NC(c3ccccc3)C/C=C/CCC(O)CC(=O)C2=C1O` (stereo not drawn), the T/C (dose: 1.56 mg/kg/injection, schedule: Q01DX009 (ip), vehicle: Klucel (hydroxypropylcellulose) (HPC)) was 115 % of control.
On to `CCC/C=C/C=C/C(=O)OC1C(C)C2(O)C3C=C(C)C(=O)C3CC(COC(C)=O)=CC2C2C(C)(C)C12OC(=O)C(C)C` (stereo not drawn), for which the T/C is, setting by setting: (dose: 0.38 mg/kg/injection, schedule: Q01DX009 (ip), vehicle: saline + alcohol) 110 % of control; (dose: 0.75 mg/kg/injection, schedule: Q01DX009 (ip), vehicle: saline + alcohol) 103 % of control; (dose: 1.5 mg/kg/injection, schedule: Q01DX009 (ip), vehicle: saline + alcohol) 110 % of control; (dose: 3.0 mg/kg/injection, schedule: Q01DX009 (ip), vehicle: saline + alcohol) 114 % of control; (dose: 6.0 mg/kg/injection, schedule: Q01DX009 (ip), vehicle: saline + alcohol) 115 % of control.
